Measurements: US20110124745A1, “Switchable Anionic Surfactants and Methods of Making and Using Same” (priority 2009, published 2011)

Legend:
[1] = Soil washing: amount of oil removed from contaminated sand
Method: Oil-contaminated soil was prepared in the following manner. North Sea crude oil (2.4 to 2.6 g) (Chevron, San Ramon, Calif., USA) was poured into a beaker. Tetrahydrofuran (THF) (to dissolution, approximately 50 mL) was added and the beaker and its contents were swirled to dissolve the oil. Ottawa sand (60 g) (EMD Chemicals, Gibbstown N.J., USA) was poured into the beaker and the contents of the beaker was swirled again. The beaker was left uncovered overnight at room temperature to allow the THF to evaporate. Then, the sand was broken up and mixed in the beaker. The beaker was left uncovered for a further time period so that total elapsed time for evaporation was 24 hours. The contaminated sand was then poured into a pre-weighed petrie dish, which was then placed into an oven at 110° C. and heated for 24 hours. After the petrie dish was removed from the oven and had cooled to room temperature, the sample and dish were weighed together. The contaminated sand was then transferred to a 100 mL amber vial for storage. This heat treatment was intended to simulate weathering of the contaminated soil. This procedure provided a sample of soil with 3.0 wt % oil contamination.
A 0.5 wt % surfactant solution was prepared in the following manner: surfactant (0.25 g) was added to a 50 mL volumetric flask. Deionized water at room temperature was added to achieve a total mass of 50 g. Sonication of the solution assisted with dissolving the surfactant.
A 0.5 wt % surfactant solution was prepared in the following manner: Deionized water was heated to 50° C. Surfactant (0.25 g) was added to a 50 mL volumetric flask. The heated water was added to achieve a total mass of 50 g. Swirling and shaking of the flask was sufficient to dissolve the surfactant.
A 0.1 wt % surfactant solution was also prepared using the above-described procedure wherein 0.0583 g of surfactant was used.
The contaminated sand of Example 7A was washed in the following manner. Three 20 mL vials were labelled and their empty masses were, recorded. Contaminated sand (5.1 g) was added to each vial and the vial's new masses were recorded. The surfactant solution was added to each vial using a syringe to achieve 10 g of solution. A stir bar was also added. The vials were capped with TEFLON®-lined lids and shaken manually for 20 seconds. The vials were placed in a beaker, to keep them upright. The beaker was placed on a stir plate and the vials were stirred at 470 rpm for 1 hour. Each vial was then manually shaken for 20 seconds. Then the stirring was continued for a second hour. The liquid portion of the samples was poured into separate 20 mL vials and is referred to below as “first decant solution”. The original vials (and their remaining contents) were each rinsed with 50 mL of deionized water and that rinse water was then added to 50 mL Wheaton jars and is referred to below as “wash solution”.
Sand washing was also carried out at elevated temperature by following the procedure as described in Example 7D with the difference that vials were placed into a 50° C. water bath. The water bath was placed on a stirring hot plate and was maintained 50° C. and the vials were stirred at 470 rpm for 1 hour. Each vial was then manually shaken for 20 seconds. Then the stirring was continued for a second hour. The liquid portion of the samples was poured into separate 20 mL vials and is referred to below as “first decant solution”. The original vials were each rinsed with 50 mL of deionized water and that rinse water was then added to 50 mL Wheaton jars and is referred to below as “wash solution”.
Oil remaining on the soil of Examples 7A-E was quantified in the following manner. An extraction was performed using 10 mL of a 1:1 dichloromethane:hexanes liquid mixture. This mixture was added to vials housing washed sand (the term “washed sand” refers to 5.1 g of contaminated sand from Example 7A that has been washed and rinsed using the procedures of Example 7D or 7E). […]

[2] = Switchability using DMSO-d6 (CO2 bubbling, 1H NMR); format: physicochemical; conditions: 0.01 M solution in DMSO-d6, non-aqueous
Source text: (§1) Since n-octyl 4-hydroxy-3-nitrobenzoate (1N) and the […] salt of (1A) are soluble in DMSO and have some characteristic signals in the ^1H NMR spectrum, […] was used as a solvent to monitor the non-aqueous switchability by NMR spectroscopy.

[3] = Solubility observations (aqueous solution, DMSO); format: physicochemical; conditions: DMSO
Source text: The following study confirmed that compounds (1A) and (1N) reversibly convert from the neutral form (1N) to the anionic form (1A) and back to the neutral form over and over again with substantially no loss of product. The conversion was verified visually since the neutral form was not soluble in aqueous solution and appeared as a white precipitate in colourless liquid while the anionic form was fully soluble in aqueous solution and appeared as a clear yellow liquid (see FIG. 2). In addition to visual examination, ^1H NMR studies that are described below confirmed the presence of the hydroxyl proton in the spectra of the neutral form.
as §1

[4] = 50° C. Washing, 0.5 wt % surfactant solution
[5] = Room Temperature Washing, 0.5 wt % surfactant solution

Molecule | Amount of oil removed from sand [1, 4] | Amount of oil removed from sand ([1]; Room Temperature Washing, 0.5 wt % surfactant solution, Sulfate) [%] | Amount of oil removed from sand ([1]; Room Temperature Washing, 0.5 wt % surfactant solution, listed as sodium dodecyl sulfate (SDS), Sulfate) [%] | conversion on CO2 bubbling by 1H NMR [2] | solubility in DMSO [3] | Amount of oil removed from sand [1, 5] [%] | Amount of oil removed from sand ([1]; 50° C. Washing, 0.1 wt % surfactant solution) [%]
CCCCCCCCCCCCOS(=O)(=O)[O-].[Na+] [Sodium Dodecyl Sulfate (SDS), Sodium Dodecyl Sulfate] | 86% | 40 | 40 |  |  |  | 
potassium 4-hydroxy-3-nitrobenzoate [potassium salt of (1A)] |  |  |  | no conversion was apparent | soluble |  | 
Triton X-100 | 94% |  |  |  |  | 68 | 
CCCCCCCCOC(=O)c1ccc(O)c([N+](=O)[O-])c1.[Na] [Sodium octyl 4-hydroxy-3-nitrobenzoate] | 94-97% |  |  |  |  | 82 | 94
